Reference: paper PMC6522372 (Nature chemical biology, 2019)

T1: McsB (Geobacillus stearothermophilus, UniProt P0DMM5)
T1 sequence (P0DMM5 1-355): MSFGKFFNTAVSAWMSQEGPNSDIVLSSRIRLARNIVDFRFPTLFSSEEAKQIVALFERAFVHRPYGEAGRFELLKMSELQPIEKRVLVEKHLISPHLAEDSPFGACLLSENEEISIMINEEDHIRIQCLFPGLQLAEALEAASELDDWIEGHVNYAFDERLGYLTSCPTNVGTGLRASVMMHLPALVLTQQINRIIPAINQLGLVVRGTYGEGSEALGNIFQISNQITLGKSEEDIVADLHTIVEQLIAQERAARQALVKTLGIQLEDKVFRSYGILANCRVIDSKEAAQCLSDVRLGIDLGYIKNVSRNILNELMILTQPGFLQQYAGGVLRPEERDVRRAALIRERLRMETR

T2: McsB (Geobacillus stearothermophilus, UniProt P0DMM5)
T2 sequence (P0DMM5 1-363): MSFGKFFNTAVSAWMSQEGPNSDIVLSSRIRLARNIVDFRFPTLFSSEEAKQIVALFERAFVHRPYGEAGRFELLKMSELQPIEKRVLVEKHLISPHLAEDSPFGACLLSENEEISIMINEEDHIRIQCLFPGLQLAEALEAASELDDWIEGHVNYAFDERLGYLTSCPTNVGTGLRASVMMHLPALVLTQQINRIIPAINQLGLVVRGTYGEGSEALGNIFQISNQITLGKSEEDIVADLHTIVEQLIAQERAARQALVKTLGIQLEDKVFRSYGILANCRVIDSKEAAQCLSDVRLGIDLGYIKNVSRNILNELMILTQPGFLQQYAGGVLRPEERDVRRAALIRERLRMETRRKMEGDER

B1: full-length McsB R338A/D339A (enzyme)
chain: MSFGKFFNTAVSAWMSQEGPNSDIVLSSRIRLARNIVDFRFPTLFSSEEAKQIVALFERAFVHRPYGEAGRFELLKMSELQPIEKRVLVEKHLISPHLAEDSPFGACLLSENEEISIMINEEDHIRIQCLFPGLQLAEALEAASELDDWIEGHVNYAFDERLGYLTSCPTNVGTGLRASVMMHLPALVLTQQINRIIPAINQLGLVVRGTYGEGSEALGNIFQISNQITLGKSEEDIVADLHTIVEQLIAQERAARQALVKTLGIQLEDKVFRSYGILANCRVIDSKEAAQCLSDVRLGIDLGYIKNVSRNILNELMILTQPGFLQQYAGGVLRPEEAAVRRAALIRERLRMETRRKMEGDER

Legend:
[1] = molecular target: T1, McsB; assay: X-ray crystal structure; format: binding
[2] = molecular target: T2, McsB; assay: SPR, steady-state; format: binding
[3] = molecular target: the molecule itself; assay: SEC-MALS

Row | Molecule | Kd [2] | also measured
1 | Nc1ncnc2c1ncn2[C@@H]1O[C@H](COP(=O)(O)OP(N)(=O)O)[C@@H](O)[C@H]1O [AMP-PN] | – | X-ray crystal structure (soak with AMP-PNP, hydrolysed to AMP-PN) [1]: the Mg⋅ATP-binding site shows a clear electron density for AMP-PN
2 | Nc1ncnc2c1ncn2[C@@H]1O[C@H](COP(=O)(O)OP(=O)(O)O)[C@@H](O)[C@H]1O [ADP] | 208 ± 60 µM | –
3 | Nc1ncnc2c1ncn2[C@@H]1O[C@H](COP(=O)(O)OP(=O)(O)OP(=O)(O)O)[C@@H](O)[C@H]1O [ATP] | 262 ± 27 µM | –
4 | B1 | – | stoichiometry N [3]: 2
